This is an account of results in paper PMC12571071, “Preventing neuropathy and improving anticancer chemotherapy with a carbazole-based compound” (Science Advances, 2025).

One series addresses NAMPT (Homo sapiens, UniProt P43490). Nature of the series: NAMPT activity assay (coupled recombinant enzyme kit). Set-up: purchased Abcam ab221819. Format: biochemical. The note with it: OD450 at 60 min, normalized by subtraction of DMSO value. From the text: We next tested whether Carba1 could activate NAMPT in vitro. To that aim, we used a commercial recombinant human enzyme assay containing four enzymes: NAMPT, NAM nucleotide adenylyltransferase 1 (NMNAT1), alcohol dehydrogenase (ADH), and diaphorase (see Materials and Methods). In the presence of NAM and 5-phosphoribosyl-1-pyrophosphate (PRPP), NAMPT converts NAM to NMN, which is then converted into NAD^+ by NMNAT1, while ADH converts NAD^+ to NADH. Then, into a coupled-reaction, diaphorase converts NADH into NAD^+ and tetrazolium salt WST-1 {4-[3-(4-iodophenyl)-2-(4-nitro-phenyl)-2H-5-tetrazolio]-1,3-benzene sulfonate} to formazan, which can be detected at optical density at 450 nm (OD450). In practice, we proceeded in two steps. First, Carba1 and the different tested compounds were incubated for 15 min with NAMPT, NMNAT1, NAM, and PRPP to allow NAD^+ production. The reaction was then stopped with FK866 before adding ADH and diaphorase to convert the NAD^+ produced to NADH, and absorbance was monitored at regular intervals.
NAMPT activity was measured using the commercial kit, NAMPT Activity Assay, according to the manufacturer’s instructions. […] A mixture of water-soluble tetrazolium salts (WST-1), ADH, diaphorase, and ethanol was added and the absorbance (OD450) measured for 90 min using the microplate reader ClarioSTAR (BMG Labtech).

The test system of a further series is PTX-induced neuropathy. Nature of the series: Rat model of PTX-induced peripheral neuropathy (von Frey, serum NfL, IENFD). It is filed as in vivo. As for the experimental part: Control animals received an equivalent volume of the vehicle (cremophor EL:ethanol, 1:1) diluted 1:4 in 0.9% NaCl.
Carba1 was injected intraperitoneally six times (50 mg/kg) on days 0, 1, 2, 4, 7, and 9, resulting in a cumulative dose of 300 mg/kg (Fig. 2F). For each injection, Carba1 was injected intraperitoneally at 50 mg/kg on days 0, 1, 2, 4, 7, and 9, for a cumulative dose of 300 mg/kg, using a stock solution (150 mg/ml; cremophor EL:ethanol, 1:1) diluted to 50 mg/ml in 0.9% NaCl. Control animals for Carba1 received the same volume of the vehicle [cremophor EL:ethanol (1:1) diluted 1:3 in 0.9% NaCl]. […] To prevent cross-exposure through feces and urine, treatment groups were randomized by cage, with each cage housing three animals.
Tactile allodynia, a common sensory disorder reported in animal models of CIPN ([56]), was assessed using an electronic von Frey test (Bioseb) ([68]). Rats were placed in plastic compartments on a wire floor and allowed to habituate for 15 min. […] The maximum force (in grams) causing withdrawal was recorded automatically. The average of two measurements, not differing by more than 10 g, was used as the nociceptive threshold ([68]). Rats were habituated to the compartments 3 days before the first injection, and the experimenter was blinded to treatment groups.
Blood samples were collected on day 15 in vials with a clot activator, left at R.T. for up to 1 hour before centrifugation at 4100 rpm at 20°C for 10 min. Serum was then collected, aliquoted, and stored at −80°C until analysis. To reduce batch effects, serum samples were randomized on assay plates. NfL concentration was measured in the serum using commercial kits (Simple Plex Ella ProteinSimple, USA; Rat NfL Kit ProteinSimple) ([27]).
Skin samples from both hind paws were fixed in 4% PFA overnight at 4°C, followed by sucrose cryoprotection (10, 20, and 30%) at 4°C overnight. After embedding in tissue freezing medium, the samples were at −80°C. Sections (20 μm) were cut using a cryostat at −17°C, washed with PBS for 5 min, and dried. The sections were blocked in PBS/0.2% Triton X-100/1%BSA for 1 hour and then incubated overnight at R.T. with anti-PGP9.5 antibody (1:400). After washing with PBS, sections were incubated with goat anti-rabbit Alexa Fluor488 secondary antibody for 2 hours, and the nuclei were stained with DAPI. Imaging was performed by acquiring 0.5 μm Z-stacks and exposure times for DAPI and fluorescein isothiocyanate set to 600 ms. Quantification followed the method described by Lauria et al. ([69]).

In the next series the test system is HeLa cells. Nature of the series: 1H NMR metabolomic profiling of HeLa cells. Format: cell-based, human. As to conditions: 12 μM, 2 hours. As for the experimental part: HeLa cells (1 × 10^6) were seeded in Ø100-mm cell culture dishes and allowed to adhere for 48 hours. Cells were then treated with DMSO or 12 μM Carba1 for 2 hours at 37°C and 5% CO2. After treatment, the medium was removed, and cells were washed with PBS at R.T. before quenching with methanol at −20°C and scrapping ([70]). Dried extracts were obtained by evaporating the solvent under gentle N2 flow and stored at −80°C until analysis. For NMR, extracts were resuspended in 620 μl of 100% D2O phosphate buffer (pH 7.4), and 550 μl was transferred into 5-mm NMR tubes. Untargeted NMR analysis was performed at 27°C on a Bruker Avance IVDr spectrometer (600 MHz, ^1H resonance) with a conventional Broadband Inverse (BBI) probe. ^1H metabolic profiles were acquired using a NOESY experiment with water presaturation (Bruker pulse program noesygppr1d) and a spectral width of 11,904.792 Hz. Experimental parameters included a 10-ms mixing time, 2-s acquisition time, 3-s recycle delay, and 512 scans. The 90°s pulse length was calibrated at ~11.09 μs per sample after automatic shimming and tuning. NMR free induction decays were multiplied by an exponential function corresponding to a line broadening of 0.3 Hz before Fourier transform. […]

Setting [1] is: rat serum, day 15, outliers removed.

Chain of NAMPT (P43490 whole entry): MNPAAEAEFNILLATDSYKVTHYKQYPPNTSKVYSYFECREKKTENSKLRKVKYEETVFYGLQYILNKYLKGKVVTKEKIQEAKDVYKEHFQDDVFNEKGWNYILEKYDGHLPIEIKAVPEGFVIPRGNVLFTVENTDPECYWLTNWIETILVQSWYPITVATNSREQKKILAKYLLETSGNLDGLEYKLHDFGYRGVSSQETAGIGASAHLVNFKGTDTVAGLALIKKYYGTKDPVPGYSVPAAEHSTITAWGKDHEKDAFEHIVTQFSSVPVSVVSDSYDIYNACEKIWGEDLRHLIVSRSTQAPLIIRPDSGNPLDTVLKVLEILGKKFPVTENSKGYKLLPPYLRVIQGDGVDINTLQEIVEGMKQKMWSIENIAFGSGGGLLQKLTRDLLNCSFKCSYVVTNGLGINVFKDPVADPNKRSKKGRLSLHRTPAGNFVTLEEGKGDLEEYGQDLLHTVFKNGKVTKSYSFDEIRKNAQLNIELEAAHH

`Cc1cc(-n2cccc2)c(C)c2c1[nH]c1ccc(Cl)cc12` [Compound 1]: on NAMPT, the “activation of NAMPT in vitro” value was “enhanced NAMPT activity in a dose-dependent manner”. Besides, in the series on PTX-induced neuropathy (rat hind paw biopsies, day 15), the “IENFD, mean” value amounted to 19.54 number/mm and the “IENFD, median” value worked out at 19.88 number/mm. Besides, in the series on PTX-induced neuropathy (setting [1]), the “NfL, mean” value was found to be 22.14 pg/mL and the “NfL, median” value worked out at 22.40 pg/mL. Besides, the “effect on PTX-induced tactile allodynia” value in the series with PTX-induced neuropathy (rat, Carba1 50 mg/kg i.p. x6 with PTX 5 mg/kg i.p. x4) was “prevents PTX-induced tactile allodynia”. Further, in the series with PTX-induced neuropathy (rat, Carba1 cotreatment with PTX), the “effect on PTX-induced intraepidermal nerve fiber degeneration” value is reported as “prevented PTX-induced intraepidermal nerve fiber degeneration”. Further, in the series with PTX-induced neuropathy (rat, i.p., PTX 5 mg/kg x4 or Carba1 50 mg/kg x6), the “tactile allodynia (paw withdrawal threshold, electronic von Frey), agent alone” value was “not analgesic”. Also, in the series with PTX-induced neuropathy (rat, vs controls), the “reduction of IENFD, agent alone” value is “had no effect”. Also, in the series on HeLa cells, the GTP levels entry is given as “significant increase” and the “NAD+ abundance” value is given as “significant decrease”.
